According to patent publication US20080311589A1, “METHOD OF HIGH-THROUGHPUT SCREENING OF MOLECULES AND COMPOUNDS FOR THEIR EFFECTS ON BIOLOGICAL AND CHEMICAL PROCESSES” (priority 1999, published 2008):

What was measured:
[1] = test system: Mv1Lu mink lung epithelial cells; assay: 384 well anti-BrdU cytoblot; format: cell-based; settings: 384-well plate; TGF-β 16 hours, then 10 μM BrdU 16 hours
Text: FIG. 1. An immunodetection assay for DNA synthesis in high density arrays of mammalian cells. (a) Cartoon depiction of an anti-BrdU cytoblot. The thymine analog 5-bromodeoxyuridine (BrdU) is incorporated into the DNA of cells that are actively replicating their DNA. The cells are in the well, and BrdU is detected with a two step antibody binding procedure. The second antibody is conjugated to the enzyme horseradish peroxidase. In the presence of the chemiluminescent substrate luminol as well as hydrogen peroxide, light of wavelength 428 nm is generated. The light emission can be detected by exposing the plate to film. (b) A cytoblot can detect TGF-β's ability to prevent BrdU incorporation in mink lung epithelial cells. 2000 Mv1Lu mink lung epithelial cells were seeded in each well of a white, opaque 384 well plate. The cells were seeded in the indicated concentrations of TGF-β in 50 μL of DMEM with 1% fetal bovine serum (FBS), 100 units/mL penicillin G sodium, 100 μg/mL streptomycin sulfate and 100 μM each of the amino acids alanine, aspartic acid, glutamine, glycine, asparagine and proline (referred to throughout as 1% mink medium) and allowed to incubate at 37° C. with 5% CO2. After 16 hours, 5.5 μL of 100 μM BrdU in 1% mink medium was added to each well, for a final concentration of 10 μM BrdU. The cells were incubated at 37° C. with 5% CO2 for an additional 16 hours and then an anti-BrdU cytoblot protocol was performed (see protocol). Wells shown are magnified 4×.
FIG. 2. A cytoblot can detect the ability of numerous antiproliferative agents to inhibit BrdU incorporation. 2000 Mv1Lu mink lung epithelial cells were seeded in each well of a white, opaque 384 well plate. The cells were seeded in 40 μL of 1% mink media and immediately 40 μL of 2× stocks of the reagents shown was added to each well and the cells were allowed to incubate at 37° C. with 5% CO2. After 24 hours, 9 μL of 100 μM BrdU in 1% mink medium was added to each well, for a final concentration of 10 μM BrdU. The cells were incubated at 37° C. with 5% CO2 for an additional 16 hours and then an anti-BrdU cytoblot protocol was performed (see protocol). Wells shown are magnified 2.5×.
The ability of the cytoblot assay to detect changes in DNA synthesis was tested by measuring the incorporation of 5-bromodeoxyuridine (BrdU, Sigma Corporation, St. Louis, Mo., Cat.# B9285) into DNA in the presence or absence of the anti-mitogen transforming growth factor β (TGF-β). Mink lung cells, which are responsive to TGF-β, were seeded into each well of an opaque, white 384-well plate. The cells were subsequently treated with varying concentrations of TGF-β for 16 hours and then with 10 μM BrdU for 16 hours. […] The following protocols provide experimental detail. […]

[2] = test system: Golgi apparatus or lysosomes; assay: distribution of lysosomes and Golgi apparatus; format: cell-based; settings: concentrations that caused strong spindle defects; interphase cells
Text: We investigated the phenotype of mammalian cells (BS-C-I) treated with the compounds of group III. Live images were taken as described previously (Cramer et al., Curr. Op. Cell Biol. 6:82, 1994); for immunofluoresence, the cells were stained with a Golgi-specific antibody (anti-Golgi 58K protein antibodies [Sigma]) or with anti-α-tubulin antibodies (DM1 A [Sigma]); actin was visualized using TRIC-conjugated phalliodin (Sigma); lysosomes were stained with LysoTracker (Molecular Probes; Palmiter et al., EMBO J. 15:1784, 1996). Our examination of the distribution of microtubules, actin, and chromatin in fixed cells by fluorescence microscopy allowed us to divide the small molecules into three classes. Twenty-seven had no observable effect on the microtubule and actin cytoskeleton or on cheomosome distribution. Consistent with the data from the cytoblot assay we observed an increase in the number of normal appearing mitotic cells. These compounds may increase the mitotic index by perturbing the function of proteins that regulate progression through the cell cycle, e.g., anaphase regulators, rather than structural or mechanochemical components of the mitotic spindle. It is also possible that these compounds have a subtle effect on cytoskeletal dynamics or chromosome organization that may not be observable in fixed cells. […]

Row | Substance | BrdU incorporation [1] | localization and organization of Golgi apparatus or lysosomes [2]
1 | TGF-β: anti-mitogen transforming growth factor β, multifunctional polypeptide signaling factor | effectively prevented BrdU incorporation | 
2 | monastrol |  | did not affect localization and organization of the Golgi apparatus or lysosomes in interphase cells
